Consider 2 compounds from US20190276439A1, “METHOD OF TREATING SOLID TUMORS” (priority 2016, published 2019).

One data set deals with VEGFR 1 (Homo sapiens, UniProt P17948). The experiment in a line: Compound A kinase selectivity profile. The class given is biochemical.
A further data set concerns the target VEGFR 2 (Homo sapiens, UniProt P35968). In words: Compound A kinase selectivity profile. The class given is biochemical.
A further data set concerns the target VEGFR 3 (Homo sapiens, UniProt P35916). The experiment in a line: Compound A kinase selectivity profile. The data set is classed as biochemical.
Another data set has as its target FGFR1 (Homo sapiens, UniProt P11362). The experiment in a line: Compound A kinase selectivity profile. The data set is classed as biochemical.
For the next data set, the target named is CSF1R (Homo sapiens, UniProt P07333). The experiment in a line: Compound A kinase selectivity profile. The data set is classed as biochemical.
CSF1R, sequence (P07333 20-972): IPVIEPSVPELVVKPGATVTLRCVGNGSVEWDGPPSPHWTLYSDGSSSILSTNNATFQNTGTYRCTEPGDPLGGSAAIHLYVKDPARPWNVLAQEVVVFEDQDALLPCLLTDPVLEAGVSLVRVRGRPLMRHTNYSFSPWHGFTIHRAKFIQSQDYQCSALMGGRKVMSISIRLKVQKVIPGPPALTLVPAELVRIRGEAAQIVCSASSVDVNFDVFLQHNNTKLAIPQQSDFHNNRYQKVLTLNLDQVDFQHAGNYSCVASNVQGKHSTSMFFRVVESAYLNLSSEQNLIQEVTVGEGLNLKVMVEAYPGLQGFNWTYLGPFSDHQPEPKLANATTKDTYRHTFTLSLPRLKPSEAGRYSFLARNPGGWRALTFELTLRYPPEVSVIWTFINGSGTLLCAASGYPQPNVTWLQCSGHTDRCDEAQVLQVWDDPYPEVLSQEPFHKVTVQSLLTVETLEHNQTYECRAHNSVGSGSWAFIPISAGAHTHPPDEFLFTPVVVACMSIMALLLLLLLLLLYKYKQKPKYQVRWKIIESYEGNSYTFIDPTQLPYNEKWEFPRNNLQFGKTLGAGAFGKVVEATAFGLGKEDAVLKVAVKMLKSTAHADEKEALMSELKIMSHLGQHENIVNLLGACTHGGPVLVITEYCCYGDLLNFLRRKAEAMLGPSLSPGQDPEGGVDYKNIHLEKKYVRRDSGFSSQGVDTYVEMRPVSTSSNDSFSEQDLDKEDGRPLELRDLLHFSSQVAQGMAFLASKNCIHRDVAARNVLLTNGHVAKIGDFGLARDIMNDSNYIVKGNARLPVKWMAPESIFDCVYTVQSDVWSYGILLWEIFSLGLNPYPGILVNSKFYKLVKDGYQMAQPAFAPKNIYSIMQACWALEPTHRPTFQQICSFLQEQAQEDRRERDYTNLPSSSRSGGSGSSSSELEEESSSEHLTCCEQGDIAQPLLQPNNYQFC
The target of another data set is TrkB (Homo sapiens, UniProt Q16620). In words: Compound A kinase selectivity profile. The class given is biochemical.
TrkB, sequence (Q16620 32-822): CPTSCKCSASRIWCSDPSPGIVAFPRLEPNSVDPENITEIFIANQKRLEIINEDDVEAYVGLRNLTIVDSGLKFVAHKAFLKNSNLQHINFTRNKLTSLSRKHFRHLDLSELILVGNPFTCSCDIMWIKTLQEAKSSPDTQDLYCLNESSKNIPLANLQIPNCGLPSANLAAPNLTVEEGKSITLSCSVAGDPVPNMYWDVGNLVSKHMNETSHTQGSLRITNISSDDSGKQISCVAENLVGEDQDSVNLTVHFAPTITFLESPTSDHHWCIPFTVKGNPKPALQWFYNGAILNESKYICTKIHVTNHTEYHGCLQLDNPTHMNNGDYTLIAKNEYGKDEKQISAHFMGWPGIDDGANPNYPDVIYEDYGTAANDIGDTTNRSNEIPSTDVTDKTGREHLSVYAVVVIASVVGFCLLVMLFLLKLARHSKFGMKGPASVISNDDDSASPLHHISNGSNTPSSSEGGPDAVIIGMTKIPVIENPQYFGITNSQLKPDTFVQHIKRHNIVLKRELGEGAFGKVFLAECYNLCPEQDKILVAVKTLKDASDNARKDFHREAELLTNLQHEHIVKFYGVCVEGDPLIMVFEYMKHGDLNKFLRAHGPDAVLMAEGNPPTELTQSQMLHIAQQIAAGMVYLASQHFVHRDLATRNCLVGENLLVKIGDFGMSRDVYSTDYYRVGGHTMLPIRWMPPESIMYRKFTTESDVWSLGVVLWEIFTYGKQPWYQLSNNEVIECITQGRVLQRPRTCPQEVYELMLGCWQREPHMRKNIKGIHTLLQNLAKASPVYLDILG
The target in the next data set is T1, FLT3 (Homo sapiens, UniProt P36888).
T1 sequence (P36888 27-993): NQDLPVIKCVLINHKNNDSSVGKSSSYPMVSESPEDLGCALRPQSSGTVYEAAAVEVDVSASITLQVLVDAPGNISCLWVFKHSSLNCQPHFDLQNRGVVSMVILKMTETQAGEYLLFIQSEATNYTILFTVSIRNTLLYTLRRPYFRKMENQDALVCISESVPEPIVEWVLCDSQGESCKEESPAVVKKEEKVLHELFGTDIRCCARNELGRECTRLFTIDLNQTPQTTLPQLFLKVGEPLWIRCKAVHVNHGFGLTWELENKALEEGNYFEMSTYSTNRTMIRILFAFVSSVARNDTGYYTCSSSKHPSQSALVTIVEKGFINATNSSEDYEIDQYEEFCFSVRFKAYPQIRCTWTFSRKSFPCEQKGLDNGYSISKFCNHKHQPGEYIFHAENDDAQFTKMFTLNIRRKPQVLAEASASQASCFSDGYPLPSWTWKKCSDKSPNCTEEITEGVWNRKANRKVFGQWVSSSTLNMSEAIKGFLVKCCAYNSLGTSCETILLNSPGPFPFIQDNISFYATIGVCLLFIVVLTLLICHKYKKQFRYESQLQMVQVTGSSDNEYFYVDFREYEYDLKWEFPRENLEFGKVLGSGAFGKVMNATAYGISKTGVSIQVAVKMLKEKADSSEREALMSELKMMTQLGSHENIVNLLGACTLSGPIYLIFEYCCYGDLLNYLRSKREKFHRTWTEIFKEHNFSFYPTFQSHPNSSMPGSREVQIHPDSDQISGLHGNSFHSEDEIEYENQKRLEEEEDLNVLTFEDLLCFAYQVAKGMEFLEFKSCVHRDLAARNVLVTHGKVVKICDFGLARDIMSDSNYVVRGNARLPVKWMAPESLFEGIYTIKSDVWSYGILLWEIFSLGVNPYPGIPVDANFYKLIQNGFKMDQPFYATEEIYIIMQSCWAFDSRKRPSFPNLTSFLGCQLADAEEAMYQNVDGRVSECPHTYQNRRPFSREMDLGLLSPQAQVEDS
The experiment in a line: Compound A kinase selectivity profile. The data set is classed as biochemical.

The target in the next data set is 278 other kinases. In words: Compound A kinase selectivity profile. The data set is classed as biochemical.
The next data set has as its target T2, Fms kinase (Homo sapiens, UniProt P07333).
T2 construct: purchased Eurofins Pharma Discovery Services UK Ltd
The experiment in a line: CSF1R inhibition, [γ-33P-ATP] incorporation assay (Eurofins). The data set is classed as biochemical. The procedure:
Inhibition of compound A on Fins was determined using […] incorporation assay carried by Eurofins Pharma Discovery Services UK Ltd. Fms kinase was incubated with 8 mM MOPS (3-(N-Morpholino)propanesulfonic acid sodium) pH 7.0, 0.2 mM EDTA ((Ethylenedinitrilo)tetraacetic acid disodium salt), 250 μM […] (a peptide), 10 mM MgAcetate and [γ-33P-ATP] (specific activity approx. 500 cpm/pmol, concentration as required). The reaction was initiated by the addition of the MgATP mix. After incubation for 40 minutes at room temperature, the reaction was stopped by the addition of 3% phosphoric acid solution. 10 μL of the reaction was then spotted onto a P30 filtermat and washed three times for 5 minutes in 75 mM phosphoric acid and once in methanol prior to drying and scintillation counting.

Data set [1] is described as follows: Phase 1 clinical study: toxicity, DLT and MTD assessments. As to conditions: doses of 50-350 mg QD and 125-150 mg BID; up to 350 mg QD (formulation 2). The data set is classed as in vivo, human. The procedure:
During the dose-escalation phase, patients were given a single dose of compound A and monitored for adverse events (AEs) for 7 days. If no clinically significant toxicities were observed, patients could enter the 28-day dose-limiting toxicity (DLT) observation phase where they received compound A continuously for 28 days. DLTs were assessed at the end of the 28-day period. If no patients experienced a DLT during the 28-day period, the dose was escalated (FIG. 1). After the completion of the DLT observation phase, patients could continue compound A treatment at their current dose (if they were judged by the investigator to be benefiting from the treatment) until any of the withdrawal criteria (investigator's decision that withdrawal was in the patient's best interest, intolerable toxicity, disease progression) were met.
The study used a modified Fibonacci 3+3 dose-escalation design with at least three evaluable patients treated with each dose. In total, 12 dose cohorts were assessed (FIG. 1). […] If […] patients experienced a DLT, the MTD was considered exceeded and the previous lower dose would be re-assessed to determine the MTD. […]
Safety and tolerability were assessed in all patients who received at least one dose of study medication throughout the study. AEs were recorded throughout the study. […]

Another data set concerns advanced solid tumors. In words: Phase 1 clinical study: tumor response (RECIST Version 1.0). The settings on record: total 77 patients. The class given is in vivo, human. The procedure:
Patients with neuroendocrine tumors (NETs) were enrolled with priority as preliminary efficacy was shown in these tumor types in the dose-escalation stage.
Tumor response (an exploratory endpoint) was assessed according to Response Evaluation Criteria in Solid Tumors (RECIST) Version 1.0 and measured at baseline, and at the end of every treatment cycle in the first 4 cycles and every other cycle thereafter. Patients with an initial assessment of complete response (CR) or partial response (PR) had to have the result confirmed by a repeat tumor assessment at least 4 weeks later. Calculations of the following parameters were made: objective response rate (ORR) (CR+PR); stable disease (SD) defined as ≥1 assessment of SD at least 6 weeks after study entry; disease control rate (DCR) (CR+PR+SD). Time to response (TTR), duration of response (DoR), and progression-free survival (PFS) were assessed in the subgroup of patients with NET.

For the next data set, the system named is NET. As to conditions: cited from earlier work; for ORR: phase 3 trial.

Like-named read-outs stand apart in the source and are kept apart here. Bounds are passed on as bounds.

T2 sequence (P07333 20-972): as the sequence (P07333 20-972) above
FGFR1, sequence (P11362 22-822): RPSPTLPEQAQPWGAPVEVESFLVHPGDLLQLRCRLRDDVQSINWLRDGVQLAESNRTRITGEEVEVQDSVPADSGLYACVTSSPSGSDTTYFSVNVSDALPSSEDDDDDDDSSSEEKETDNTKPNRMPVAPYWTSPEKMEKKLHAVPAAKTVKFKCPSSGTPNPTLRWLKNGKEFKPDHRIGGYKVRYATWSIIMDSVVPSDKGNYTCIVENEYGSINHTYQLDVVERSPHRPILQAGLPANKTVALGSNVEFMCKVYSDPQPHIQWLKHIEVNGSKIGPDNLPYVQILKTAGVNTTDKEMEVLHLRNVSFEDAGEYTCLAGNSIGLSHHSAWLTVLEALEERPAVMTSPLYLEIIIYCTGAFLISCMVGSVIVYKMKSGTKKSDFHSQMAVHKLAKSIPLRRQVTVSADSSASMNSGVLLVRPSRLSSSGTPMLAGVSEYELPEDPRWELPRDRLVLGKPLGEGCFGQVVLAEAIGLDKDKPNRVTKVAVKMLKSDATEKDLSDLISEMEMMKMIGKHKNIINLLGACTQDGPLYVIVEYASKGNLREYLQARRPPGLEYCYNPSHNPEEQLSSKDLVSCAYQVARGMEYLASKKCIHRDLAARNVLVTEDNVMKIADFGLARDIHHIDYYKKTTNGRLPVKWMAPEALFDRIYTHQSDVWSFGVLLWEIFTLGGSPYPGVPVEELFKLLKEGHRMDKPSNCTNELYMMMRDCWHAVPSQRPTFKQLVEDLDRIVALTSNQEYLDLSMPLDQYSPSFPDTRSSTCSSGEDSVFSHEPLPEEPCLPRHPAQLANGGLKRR
VEGFR 1, sequence (P17948 27-1338): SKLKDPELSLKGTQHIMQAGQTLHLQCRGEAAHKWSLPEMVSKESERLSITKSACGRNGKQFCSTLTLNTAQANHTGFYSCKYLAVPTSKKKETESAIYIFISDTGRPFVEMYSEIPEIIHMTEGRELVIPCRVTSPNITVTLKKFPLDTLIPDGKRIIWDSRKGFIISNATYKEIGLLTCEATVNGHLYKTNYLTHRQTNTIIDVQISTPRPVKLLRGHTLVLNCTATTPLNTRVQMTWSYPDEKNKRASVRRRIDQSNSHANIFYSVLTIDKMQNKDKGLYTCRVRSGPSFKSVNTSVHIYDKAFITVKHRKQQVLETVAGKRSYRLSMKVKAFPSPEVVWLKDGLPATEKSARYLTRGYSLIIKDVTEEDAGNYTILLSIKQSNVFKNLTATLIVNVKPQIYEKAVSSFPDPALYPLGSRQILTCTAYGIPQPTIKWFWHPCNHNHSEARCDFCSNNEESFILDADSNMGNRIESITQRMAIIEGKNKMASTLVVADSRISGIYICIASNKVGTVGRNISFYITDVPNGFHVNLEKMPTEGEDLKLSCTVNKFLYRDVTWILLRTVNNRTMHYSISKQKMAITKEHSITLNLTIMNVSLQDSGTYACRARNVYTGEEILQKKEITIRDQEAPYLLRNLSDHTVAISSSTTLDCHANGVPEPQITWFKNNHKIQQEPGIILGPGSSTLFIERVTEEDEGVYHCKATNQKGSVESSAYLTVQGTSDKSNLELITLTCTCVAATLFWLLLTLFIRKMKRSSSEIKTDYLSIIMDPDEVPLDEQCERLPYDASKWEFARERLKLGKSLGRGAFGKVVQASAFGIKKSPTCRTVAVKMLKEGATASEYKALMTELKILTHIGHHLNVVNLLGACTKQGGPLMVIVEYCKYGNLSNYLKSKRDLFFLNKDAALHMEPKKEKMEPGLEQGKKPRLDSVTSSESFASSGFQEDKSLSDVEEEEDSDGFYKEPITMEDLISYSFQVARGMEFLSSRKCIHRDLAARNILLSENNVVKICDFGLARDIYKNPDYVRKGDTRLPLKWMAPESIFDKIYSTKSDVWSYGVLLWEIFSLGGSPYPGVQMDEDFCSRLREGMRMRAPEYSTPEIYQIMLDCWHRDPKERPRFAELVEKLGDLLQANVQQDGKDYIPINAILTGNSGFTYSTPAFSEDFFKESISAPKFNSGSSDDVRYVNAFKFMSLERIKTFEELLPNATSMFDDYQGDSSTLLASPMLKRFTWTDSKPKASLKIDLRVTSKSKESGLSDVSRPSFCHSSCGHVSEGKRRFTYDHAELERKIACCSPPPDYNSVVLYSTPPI

One may read the IC50 as the point on the concentration scale where inhibition reaches its midpoint. A high value points to a need for much substance. Consider `Cc1cc2cc(Oc3ccnc(Nc4cccc(CS(=O)(=O)NCCN(C)C)c4)n3)ccc2[nH]1` [Compound A, N-(2-(dimethylamino)ethyl)-1-(3-((4-((2-methyl-1H-indol-5-yl)oxy)pyrimidin-2-yl)amino)phenyl)-methanesulfonamide], for which the 50% inhibitory concentration (IC50) on VEGFR 1 was 2 nM; on VEGFR 2, 24 nM; at VEGFR 3 it was 1 nM; at FGFR1, 15 nM; at CSF1R, 4 nM; at TrkB it was 41 nM. Besides, the concentration for half-maximal inhibition (IC50) was 67 nM against FLT3 and over 150 nM at 278 other kinases. Further, the “IH (%)” value is −3% at Fms kinase (0.0001 μM); 3% at Fms kinase (0.0003 μM); 15% at Fms kinase (0.001 μM); 38% at Fms kinase (0.003 μM); 72% on Fms kinase (0.01 μM); 86% on Fms kinase (0.03 μM). Also, the “IH (%)” value on Fms kinase (0.1 μM) stood at 94%; on Fms kinase (0.3 μM) it was 98%; on Fms kinase (1 μM) it was 98%. In addition, the “MTD (maximum tolerated dose)” value in data set [1] is “not reached”. Also, the “patients with confirmed PR” value with advanced solid tumors is recorded as “nine”.

On to `CO[C@H]1C[C@@H]2CC[C@@H](C)[C@@](O)(O2)C(=O)C(=O)N2CCCC[C@H]2C(=O)O[C@H]([C@H](C)C[C@@H]2CC[C@@H](OCCO)[C@H](OC)C2)CC(=O)[C@H](C)/C=C(\C)[C@@H](O)[C@@H](OC)C(=O)[C@H](C)C[C@H](C)/C=C/C=C/C=C/1C` [everolimus], for which the ORR in the data set with NET (GI and lung NET) was 2%; in the data set on NET (pancreatic NET), 5%. In addition, in the data set on NET (phase 3 trials), the “median PFS” value is reported as “approximately 11 months”.
